In patent US10238633B2, “Methods for treating pulmonary emphysema using substituted 2-Aza-bicyclo[2.2.1]heptane-3-carboxylic acid (benzyl-cyano-methyl)-amides inhibitors of Cathepsin C” (Boehringer Ingelheim International GmbH, priority 2013, dated 2019) one finds IC50 data, which are given here for 38 compounds.

For the test, the system named is Neutrophil elastase activity in U937 cells. As to the kind of experiment: Determination of neutrophil elastase activity in U937 cytosolic lysate preparation after incubation with test compound. It is filed as cell-based. As to conditions: Homo sapiens, U-937, read-out: Reduction of NE-activity in U937 cells IC50. On the procedure: Determination of Neutrophil Elastase Activity in U937 Cytosolic Lysate Preparation after Incubation with Test Compound
Optiplate 384F were purchased from PerkinElmer (Prod. No. #6007270). 24 well Nunclon cell culture plates (No. 142475) and 96 well plates (No. 267245) were from Nunc. Dimethylsulfoxid (DMSO) was from Sigma (Prod. No. D8418). Nonidet-P40 (NP40) was from USBiological (Prod. No. N3500)
Substrate, specific for Neutrophil elastase, was from Bachem (MeOSuc-Ala-Ala-Pro-Val-AMC; Prod. No. 1-1270).
Human neutrophil elastase was from Calbiochem (Prod. No. 324681)
Tris-buffer (100 mM Tris; 1M NaCL; pH 7.5)
Tris-buffer+HSA 0.1%; Human Serum Albumin from Calbiochem (Cat#. 126658)
Serine-protease buffer (20 mM Tris; 100 mM NaCL; pH 7.5)+0.1% HSA
Serine protease lysis buffer: 20 mM Tris-HCL; 100 mM NaCl pH 7.5; +0.2% Nonidet-P40;
PBS: phosphate buffered saline, without Ca and Mg, from Gibco
U937 from ECACC (Cat. No. 85011440) cultured in suspension at 37° C. and 5% CO2.
Cell density: 0.2-1 Mio. Cells/ml.
Medium: RPMI1640 GlutaMAX (No. 61870) with 10% FCS from Gibco
Cell Seeding and Treatment:
Compounds in 100% DMSO were diluted in Medium (—FCS) with 10% DMSO and further diluted according to the experiment planned.
20 μl of the compound solution was transferred in the respective wells of the 24 well plate and diluted with 2 ml cell suspension/well containing […] (final concentration of DMSO=0.1%). Compound dilution factor=100
Compounds (up to 7 concentrations) were tested in triplicates with 3 wells for the DMSO 0.1% control, incubated for 48 hours without medium change at 37° C., 5% CO2 and 95% relative humidity.
Cell Harvesting and Cell Lysate:
Transfer the cell suspension in 2.2 ml Eppendorf cups. Separate cells from medium by centrifugation (400×g; 5 min; RT); discard the supernatant. Resuspend in 1 ml PBS; centrifugation (400×g; 5 min; RT); wash cells twice with PBS. Add 100 μl Serin lysis buffer (ice cold) to the cell pellet; resuspend the pellet and store on ice for 15 minutes. Remove debris by centrifugation at 15000×g for 10 min at 4° C. Transfer 80-100 μl lysate supernatant in 96 well plate and store immediately at −80° C.
Neutrophil Elastase Activity Assay:
Frozen lysates were thawn at 37° C. for 10 minutes and stored on ice. Protein content was determined with Bradford protein assay. Lysates were diluted to 0.2-0.5 mg/ml protein in serine protease buffer+HSA.
Standard: NE (100 μg/ml stock solution in Tris-buffer; stored at −80° C.) was diluted in Tris-buffer+HSA to 750 ng/ml, and further serially diluted 1:2 for the standard curve.
Buffer, blank, standard and lysate samples were transferred into 384 well plate
Blank: 5 μl Tris-buffer+10 μl Tris-buffer+HSA+5 μl Substrate
Standard: 5 μl Tris-buffer+10 μl NE (diff. conc.)+5 μl Substrate
Lysate: 5 μl Tris-buffer+10 μl Lysat+[…] Substrate
The increase in fluorescence (Ex360 nm/Em 460 nm) is determined over 30 minutes with a Molecular Device Spectramax M5 Fluorescence Reader. Kinetic Reduction (Vmax units/sec); 4 vmax points. The amount of neutrophil elastase (ng/ml) is calculated using the standard curve and the Spectramax software. The result is interpolated to ng/mg lysate protein using excel formula functions. […] IC50 is calculated using Graphpad Prism; nonlinear fitting (log(inhibitor) vs. response—Variable slope).

Take `CCN1CCN(c2ccc(C[C@@H](C#N)NC(=O)[C@H]3N[C@@H]4CC[C@H]3C4)c(F)c2)CC1` [Example 272]: the IC50 came out at 2.4 nM.
Turning to `Cn1c(=O)c2cc(C[C@@H](C#N)NC(=O)[C@H]3N[C@@H]4CC[C@H]3C4)c(F)cc2c2ccccc21` [Example 326], the half-maximal inhibitory concentration (IC50) was found to be 1.9 nM.
Regarding `CC1(C)OC(=O)c2ccc(-c3ccc(C[C@@H](C#N)NC(=O)[C@H]4N[C@@H]5CC[C@H]4C5)c(F)c3)cc21` [Example 156], the 50% inhibitory concentration (IC50) was determined as 2.3 nM.
For `CC(C)N1CCN(C(=O)c2cc(-c3ccc(C[C@@H](C#N)NC(=O)[C@H]4N[C@@H]5CC[C@H]4C5)c(F)c3)cs2)CC1` [Example 227] the value was 0.9 nM; for `Cn1cc(-c2ccc(C[C@@H](C#N)NC(=O)[C@H]3N[C@@H]4CC[C@H]3C4)c(F)c2)ccc1=O` [Example 254], 30.5 nM.
For `COCCN1C(C)CN(c2ccc(C[C@@H](C#N)NC(=O)[C@H]3N[C@@H]4CC[C@H]3C4)c(F)c2)CC1C` (some centres unmarked) [Example 191] the value was 3.3 nM; for `CN(C)C1CCCN(c2ccc(C[C@@H](C#N)NC(=O)[C@H]3N[C@@H]4CC[C@H]3C4)c(F)c2)C1` (stereo partly drawn) [Example 344, (1S,2S,4R)—N-[(1S)-1-cyano-2-[4-[3-(dimethylamino)-1-piperidyl]-2-fluoro-phenyl]ethyl]-3-azabicyclo[2.2.1]heptane-2-carboxamide], 4.1 nM; for `N#C[C@H](Cc1cc2c(=O)[nH]c3c(F)c(F)ccc3c2cc1F)NC(=O)[C@H]1N[C@@H]2CC[C@H]1C2` [Example 324], 1.3 nM.
For `CN1CCN(C(=O)c2ccc(-c3ccc(C[C@@H](C#N)NC(=O)[C@H]4N[C@@H]5CC[C@H]4C5)c(F)c3)o2)CC1` [Example 289] the value was 3.9 nM.
Regarding `N#CC(Cc1ccc(-c2ccc3c(c2)COC3=O)cc1F)NC(=O)[C@H]1N[C@@H]2CC[C@H]1C2` (some centres unmarked) [Example 11], the IC50 worked out at 8.7 nM.
To `CN1CCCN(c2ccc(C[C@@H](C#N)NC(=O)[C@H]3N[C@@H]4CC[C@H]3C4)c(F)c2)CC1` [Example 247] belongs 8 nM; to `CN1CC2CCC(C1)N2c1ccc(C[C@@H](C#N)NC(=O)[C@H]2N[C@@H]3CC[C@H]2C3)c(F)c1` [Example 328], 1.2 nM; to `N#C[C@H](Cc1ccc(N2CCC(N3CCOCC3)CC2)cc1F)NC(=O)[C@H]1N[C@@H]2CC[C@H]1C2` [Example 193], 6.5 nM.
For `N#C[C@H](Cc1ccc([C@H]2CCN3CCOC[C@H]3C2)cc1F)NC(=O)[C@H]1N[C@@H]2CC[C@H]1C2` [Example 284] the value was 5.3 nM; for `CN1Cc2cc(-c3ccc(C[C@@H](C#N)NC(=O)[C@H]4N[C@@H]5CC[C@H]4C5)c(F)c3)ccc2S1(=O)=O` [Example 169], 9.1 nM; for `C[C@H]1CN(C)CCN1c1ccc(C[C@@H](C#N)NC(=O)[C@H]2N[C@@H]3CC[C@H]2C3)c(F)c1` [Example 188], 4.4 nM.
To `CC1CN(C)CCN1c1ccc(C[C@@H](C#N)NC(=O)[C@H]2N[C@@H]3CC[C@H]2C3)c(F)c1` (some centres unmarked) [Example 192] belongs 4.1 nM; to `N#C[C@H](Cc1ccc(-c2ccc3c(c2)COC3=O)cc1F)NC(=O)[C@H]1N[C@@H]2CC[C@H]1C2` [Example 3, (1S,2S,4R)—N-[(1S)-1-cyano-2-[2-fluoro-4-(1-oxo-3H-isobenzofuran-5-yl)phenyl]ethyl]-3-azabicyclo[2.2.1]heptane-2-carboxamide], 2.9 nM.
Consider `CS(=O)(=O)c1cccc(-c2ccc(C[C@@H](C#N)NC(=O)[C@H]3N[C@@H]4CC[C@H]3C4)c(F)c2)c1` [Example 4, (1S,2S,4R)—N-[(1S)-1-cyano-2-[2-fluoro-4-(3-methylsulfonylphenyl)phenyl]ethyl]-3-azabicyclo[2.2.1]heptane-2-carboxamide], for which the IC50 came to 6.4 nM.
With `N#C[C@H](Cc1ccc(-c2ccc(S(=O)(=O)N3CCOCC3)cc2)cc1F)NC(=O)[C@H]1N[C@@H]2CC[C@H]1C2` [Example 217], the IC50 stood at 7.5 nM.
For `N#C[C@H](Cc1ccc([C@@H]2CCN3CCOC[C@H]3C2)cc1F)NC(=O)[C@H]1N[C@@H]2CC[C@H]1C2` [Example 283] the value was 4.5 nM; for `CN1CCN(S(=O)(=O)c2cc(-c3ccc(C[C@@H](C#N)NC(=O)[C@H]4N[C@@H]5CC[C@H]4C5)c(F)c3)ccc2F)CC1` [Example 339], 0.6 nM.
For `N#C[C@H](Cc1ccc(-c2csc(C(=O)N3CCN(C4CC4)CC3)c2)cc1F)NC(=O)[C@H]1N[C@@H]2CC[C@H]1C2` [Example 229] the value was 2.9 nM.
Consider `COCCN1C(=O)Cc2ccc(-c3ccc(C[C@@H](C#N)NC(=O)[C@H]4N[C@@H]5CC[C@H]4C5)c(F)c3)cc21` [Example 158], for which the IC50 was found to be 8.8 nM.
On to `CN(C)CCN1C(=O)Cc2cc(-c3ccc(C[C@@H](C#N)NC(=O)[C@H]4N[C@@H]5CC[C@H]4C5)c(F)c3)ccc21` [Example 279], for which the IC50 was 1.9 nM.
In the case of `CO[C@@H]1C[C@@H]2CN(c3ccc(C[C@@H](C#N)NC(=O)[C@H]4N[C@@H]5CC[C@H]4C5)c(F)c3)CCN2C1` [Example 269], the IC50 was 5.5 nM.
Take `Cn1c(=O)c2cc(CC(C#N)NC(=O)[C@H]3N[C@@H]4CC[C@H]3C4)ccc2c2ccc(C#N)cc21` (some centres unmarked) [Example 303]: the IC50 stood at 8.3 nM.
To `CN1CCN(C(=O)c2cc(-c3ccc(C[C@@H](C#N)NC(=O)[C@H]4N[C@@H]5CC[C@H]4C5)c(F)c3)cs2)CC1` [Example 225] belongs 2.8 nM; to `CN1CCN(c2ccc(C[C@@H](C#N)NC(=O)[C@H]3N[C@@H]4CC[C@H]3C4)c(F)c2)CC1` [Example 6, (1S,2S,4R)—N-[(1S)-1-cyano-2-[2-fluoro-4-(4-methylpiperazin-1-yl)phenyl]ethyl]-3-azabicyclo[2.2.1]heptane-2-carboxamide], 2.4 nM.
For `N#C[C@H](Cc1ccc(N2C3CCC2CN(C2CCOC2)C3)cc1F)NC(=O)[C@H]1N[C@@H]2CC[C@H]1C2` (some centres unmarked) [Example 329] the value was 2.5 nM.
To `CN1CC2(C1)CN(c1ccc(C[C@@H](C#N)NC(=O)[C@H]3N[C@@H]4CC[C@H]3C4)c(F)c1)C2` [Example 330] belongs 37.7 nM.
With `CN1CCN(S(=O)(=O)c2ccc(-c3ccc(C[C@@H](C#N)NC(=O)[C@H]4N[C@@H]5CC[C@H]4C5)c(F)c3)cc2)CC1` [Example 155], the IC50 came out at 0.5 nM.
On to `N#CC(Cc1cc2c(=O)[nH]c3cc(F)ccc3c2cc1F)NC(=O)[C@H]1N[C@@H]2CC[C@H]1C2` (some centres unmarked) [Example 293], for which the IC50 was found to be 4.6 nM.
To `CN1CCN(S(=O)(=O)c2cccc(-c3ccc(C[C@@H](C#N)NC(=O)[C@H]4N[C@@H]5CC[C@H]4C5)c(F)c3)c2)CC1` [Example 224] belongs 1 nM; to `N#C[C@H](Cc1ccc(N2CCN(C3CCOC3)CC2)cc1F)NC(=O)[C@H]1N[C@@H]2CC[C@H]1C2` (some centres unmarked) [Example 331], 6 nM; to `N#C[C@H](Cc1ccc(N2CCN3CCOC[C@@H]3C2)cc1F)NC(=O)[C@H]1N[C@@H]2CC[C@H]1C2` [Example 249], 16.5 nM.
To `CN1CCC(Oc2ccc(C[C@@H](C#N)NC(=O)[C@H]3N[C@@H]4CC[C@H]3C4)c(F)c2)CC1` [Example 319, (1S,2S,4R)—N-[(1S)-1-cyano-2-[2-fluoro-4-[(1-methyl-4-piperidyl)oxy]phenyl]ethyl]-3-azabicyclo[2.2.1]heptane-2-carboxamide] belongs 9.3 nM.
`N#C[C@H](Cc1ccc(N2CCN3CCOCC3C2)cc1F)NC(=O)[C@H]1N[C@@H]2CC[C@H]1C2` (some centres unmarked) [Example 43]: the IC50 is 9.2 nM.
